These results are taken from PubChem BioAssay AID330 (DTP/NCI, 2004).

The subject of this assay is P388 leukemia ip, CD2F1 mice, survival T/C. Briefly: NCI In Vivo Anticancer Drug Screen. Data for tumor model P388 Leukemia (intraperitoneal) in CD2F1 (CDF1) mice. The conditions noted are these: endpoint: median survival time, higher = longer survival. In outline: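 Mice carrying the transplanted tumor received test compound or vehicle. Survival was recorded in each group, and the value is the treated-group measurement divided by that of the vehicle-treated control group.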

The mark [1] stands for this setting: dose: 60.0 mg/kg/injection, schedule: Q01DX005 (ip), vehicle: Klucel (hydroxypropylcellulose) (HPC).
[2] abbreviates: dose: 60.0 mg/kg/injection, schedule: Q01DX005 (ip), vehicle: saline with Tween-80.
The mark [3] stands for this setting: dose: 120.0 mg/kg/injection, schedule: Q01DX005 (ip), vehicle: Klucel (hydroxypropylcellulose) (HPC).
Setting [4] is: dose: 120.0 mg/kg/injection, schedule: Q01DX005 (ip), vehicle: saline with Tween-80.
Where [5] appears, read: dose: 240.0 mg/kg/injection, schedule: Q01DX005 (ip), vehicle: saline with Tween-80.
The mark [6] stands for this setting: dose: 50.0 mg/kg/injection, schedule: Q01DX009 (ip), vehicle: Klucel (hydroxypropylcellulose) (HPC).
[7] abbreviates: dose: 100.0 mg/kg/injection, schedule: Q01DX009 (ip), vehicle: Klucel (hydroxypropylcellulose) (HPC).
The mark [8] stands for this setting: dose: 50.0 mg/kg/injection, schedule: Q01DX009 (ip), vehicle: saline with Tween-80.
Setting [9] is: dose: 50.0 mg/kg/injection, schedule: Q01DX005 (ip), vehicle: saline with Tween-80.
The mark [10] stands for this setting: dose: 100.0 mg/kg/injection, schedule: Q01DX005 (ip), vehicle: saline with Tween-80.
Setting [11] is: dose: 200.0 mg/kg/injection, schedule: Q01DX005 (ip), vehicle: saline with Tween-80.
Setting [12] is: dose: 200.0 mg/kg/injection, schedule: Q01DX009 (ip), vehicle: saline.
Setting [13] is: dose: 100.0 mg/kg/injection, schedule: Q01DX009 (ip), vehicle: saline with Tween-80.
The mark [14] stands for this setting: dose: 50.0 mg/kg/injection, schedule: Q01DX005 (ip), vehicle: Klucel (hydroxypropylcellulose) (HPC).
Where [15] appears, read: dose: 100.0 mg/kg/injection, schedule: Q01DX005 (ip), vehicle: Klucel (hydroxypropylcellulose) (HPC).
[16] abbreviates: dose: 200.0 mg/kg/injection, schedule: Q01DX005 (ip), vehicle: Klucel (hydroxypropylcellulose) (HPC).
Setting [17] is: dose: 100.0 mg/kg/injection, schedule: Q04DX003 (ip), vehicle: Klucel (hydroxypropylcellulose) (HPC).
[18] abbreviates: dose: 200.0 mg/kg/injection, schedule: Q04DX003 (ip), vehicle: Klucel (hydroxypropylcellulose) (HPC).

Where “and” joins values, the source holds several entries; their conditions need not be identical. Identical values can stand only once. Inconclusive results and toxic doses are left out.

With `O=C(O)CSc1ccc([N+](=O)[O-])cc1[N+](=O)[O-]`, the T/C is 107 % of control under setting [1]; 96 % of control under setting [2]; 103 % of control under setting [3]; 86 % of control under setting [4]; 109 % of control (dose: 240.0 mg/kg/injection, schedule: Q01DX005 (ip), vehicle: Klucel (hydroxypropylcellulose) (HPC)); 95 % of control under setting [5].
Regarding `CN(C)c1nc(N)nc(N)n1`, the T/C reads like this: (dose: 6.25 mg/kg/injection, schedule: Q01DX009 (ip), vehicle: Klucel (hydroxypropylcellulose) (HPC)) 100 % of control; (dose: 12.5 mg/kg/injection, schedule: Q01DX009 (ip), vehicle: Klucel (hydroxypropylcellulose) (HPC)) 101 % of control and 115 % of control; (dose: 25.0 mg/kg/injection, schedule: Q01DX009 (ip), vehicle: Klucel (hydroxypropylcellulose) (HPC)) 99 % of control and 106 % of control; under setting [6], 100 % of control and 107 % of control; under setting [7], 100 % of control; (dose: 200.0 mg/kg/injection, schedule: Q01DX009 (ip), vehicle: Klucel (hydroxypropylcellulose) (HPC)) 105 % of control.
In the case of `O=C(Cn1cnc2c(=S)nc[nH]c21)Oc1ccc([N+](=O)[O-])cc1`, the T/C by setting is: (dose: 12.5 mg/kg/injection, schedule: Q01DX009 (ip), vehicle: saline with Tween-80) 109 % of control; (dose: 25.0 mg/kg/injection, schedule: Q01DX009 (ip), vehicle: saline with Tween-80) 100 % of control; (dose: 25.0 mg/kg/injection, schedule: Q04DX003 (ip), vehicle: saline with Tween-80) 91 % of control; under setting [8], 100 % of control; (dose: 50.0 mg/kg/injection, schedule: Q04DX003 (ip), vehicle: saline with Tween-80) 91 % of control.
`COc1cc2cccnc2c2[nH]c(=O)c3c(c12)CCC3`: the T/C is 101 % of control (dose: 100.0 mg/kg/injection, schedule: Q04DX003 (ip), vehicle: saline) and 99 % of control (dose: 200.0 mg/kg/injection, schedule: Q04DX003 (ip), vehicle: saline).
As to `O=C(CN1C(=O)c2cccc3c(Br)ccc(c23)C1=O)c1ccc(F)cc1`, the T/C was 87 % of control under setting [9], 103 % of control under setting [10] and 89 % of control under setting [11].
Regarding `O=C(O)c1cncc(C(=O)NCO)c1`, the T/C (dose: 12.5 mg/kg/injection, schedule: Q01DX009 (ip), vehicle: saline) is 101 % of control; the T/C (dose: 25.0 mg/kg/injection, schedule: Q01DX009 (ip), vehicle: saline) is 101 % of control and 91 % of control; the T/C under setting [12] is 99 % of control and 103 % of control and 91 % of control.
As for `CCC1=NO[C@@H](C)[C@H]1C(=O)OCc1ccccc1`, the T/C under setting [2] is 106 % of control, the T/C under setting [4] was 100 % of control and the T/C under setting [5] was 97 % of control.
Regarding `CCC1NC(C)(C)CC1=C(C)C` (centres undefined), the T/C is, setting by setting: (dose: 6.25 mg/kg/injection, schedule: Q04DX003 (ip), vehicle: saline) 105 % of control; (dose: 12.5 mg/kg/injection, schedule: Q04DX003 (ip), vehicle: saline) 110 % of control; (dose: 25.0 mg/kg/injection, schedule: Q04DX003 (ip), vehicle: saline) 110 % of control.
With `O=C(NC1c2ccccc2Oc2ccccc21)c1ccc([N+](=O)[O-])cc1`, the T/C under setting [9] is 102 % of control, the T/C under setting [10] is 93 % of control and the T/C under setting [11] was 91 % of control.
Take `COc1c(O)c(O)cc2c1-c1ccc(OC)c(=O)cc1C(NC(C)=O)CC2` (centres undefined): the T/C is, setting by setting: (dose: 1.25 mg/kg/injection, schedule: Q01DX009 (ip), vehicle: water) 114 % of control; (dose: 2.5 mg/kg/injection, schedule: Q01DX009 (ip), vehicle: water) 117 % of control; (dose: 20.0 mg/kg/injection, schedule: Q01DX009 (ip), vehicle: water) 166 % of control and 177 % of control; (dose: 40.0 mg/kg/injection, schedule: Q01DX009 (ip), vehicle: water) 204 % of control.
Take `COc1cc2c(c3oc(=O)cc(CCC(=O)O)c13)C1CC(=O)OC1O2` (centres undefined): the T/C runs as follows: (dose: 8.75 mg/kg/injection, schedule: Q01DX005 (ip), vehicle: Klucel (hydroxypropylcellulose) (HPC)) 101 % of control; (dose: 17.5 mg/kg/injection, schedule: Q01DX005 (ip), vehicle: Klucel (hydroxypropylcellulose) (HPC)) 100 % of control; (dose: 35.0 mg/kg/injection, schedule: Q01DX005 (ip), vehicle: Klucel (hydroxypropylcellulose) (HPC)) 97 % of control.
For the compound `O=COCC1(c2ccncc2)OCCO1`, the T/C reads like this: (dose: 50.0 mg/kg/injection, schedule: Q01DX005 (ip), vehicle: saline) 108 % of control; (dose: 100.0 mg/kg/injection, schedule: Q01DX005 (ip), vehicle: saline) 107 % of control; (dose: 200.0 mg/kg/injection, schedule: Q01DX005 (ip), vehicle: saline) 99 % of control.
`CC(=O)N1c2ccccc2Sc2ccc3ccccc3c21`: the T/C was 93 % of control under setting [8]; 100 % of control under setting [13]; 99 % of control (dose: 200.0 mg/kg/injection, schedule: Q01DX009 (ip), vehicle: saline with Tween-80).
Consider `C=C1C[C@]2(C)c3ccccc3NC(=O)[C@H]12`, for which the T/C is, setting by setting: under setting [14], 105 % of control; under setting [15], 107 % of control; under setting [16], 98 % of control.
Turning to `COc1ccc(NC(=O)Oc2ccc(C#N)cc2)cc1`, the T/C is 108 % of control and 98 % of control (dose: 7.5 mg/kg/injection, schedule: Q01DX005 (ip), vehicle: Klucel (hydroxypropylcellulose) (HPC)); 112 % of control and 98 % of control (dose: 15.0 mg/kg/injection, schedule: Q01DX005 (ip), vehicle: Klucel (hydroxypropylcellulose) (HPC)); 105 % of control and 108 % of control (dose: 30.0 mg/kg/injection, schedule: Q01DX005 (ip), vehicle: Klucel (hydroxypropylcellulose) (HPC)); 116 % of control and 123 % of control under setting [1]; 117 % of control under setting [3].
With `Nc1ccn(COC(COCc2ccccc2)COCc2ccccc2)c(=O)n1`, the T/C by setting is: under setting [2], 105 % of control; under setting [4], 96 % of control; under setting [5], 110 % of control.
For `N#CNC(=O)c1cccnc1`, the T/C reads like this: (dose: 50.0 mg/kg/injection, schedule: Q01DX009 (ip), vehicle: saline) 99 % of control; (dose: 100.0 mg/kg/injection, schedule: Q01DX009 (ip), vehicle: saline) 94 % of control; under setting [12], 99 % of control.
As to `Cc1ccc(NC(=O)C(C)C)cc1`, the T/C under setting [17] is 100 % of control; the T/C under setting [18] was 101 % of control; the T/C (dose: 400.0 mg/kg/injection, schedule: Q04DX003 (ip), vehicle: Klucel (hydroxypropylcellulose) (HPC)) was 109 % of control.
In the case of `CC(=O)NNc1ccc(Cl)cc1[N+](=O)[O-]`, the T/C by setting is: under setting [6], 96 % of control; under setting [7], 101 % of control.
Regarding `CC1OC(C)(C2CC2)OC1C` (centres undefined), the T/C is, setting by setting: under setting [17], 95 % of control; under setting [18], 100 % of control.
Turning to `OC1(C2=COCCO2)CCCCC1`, the T/C is, setting by setting: (dose: 60.0 mg/kg/injection, schedule: Q01DX005 (ip), vehicle: saline) 105 % of control; (dose: 120.0 mg/kg/injection, schedule: Q01DX005 (ip), vehicle: saline) 110 % of control; (dose: 240.0 mg/kg/injection, schedule: Q01DX005 (ip), vehicle: saline) 105 % of control.
As to `O=C1OCC/C1=C1/NC2CCCCC2NC1=O` (centres undefined), the T/C is, setting by setting: under setting [8], 94 % of control; under setting [13], 94 % of control.
Regarding `NC1(C(=O)O)CCSCC1`, the T/C under setting [14] is 101 % of control, the T/C under setting [15] is 102 % of control and the T/C under setting [16] was 90 % of control.
Regarding `COC(=O)c1nc(=S)[nH]c(C(=O)OC)c1C(=O)c1ccc(N2CCN(c3ccc(C(=O)c4c(C(=O)OC)nc(=S)[nH]c4C(=O)OC)cc3)CC2)cc1`, the T/C is, setting by setting: (dose: 60.0 mg/kg/injection, schedule: Q01DX005 (ip), vehicle: suspension in saline) 99 % of control; (dose: 120.0 mg/kg/injection, schedule: Q01DX005 (ip), vehicle: suspension in saline) 97 % of control; (dose: 240.0 mg/kg/injection, schedule: Q01DX005 (ip), vehicle: suspension in saline) 100 % of control.
